Measured values from ChEMBL document CHEMBL1152755, “Synthesis and cytotoxic properties of 4,11-bis[(aminoethyl)amino]anthra[2,3-b]thiophene-5,10-diones, novel analogues of antitumor anthracene-9,10-diones” (2009).
Calls of active or inactive are those of the source. The rule behind the calls is not given here.

Columns and labels:
K562 = assay: Resistance index, ratio IC50 for human K562 cells to IC50 for P-gp positive human K562 cells; assay type: functional
[1] = molecular target: Telomerase reverse transcriptase (Homo sapiens) (UniProt O14746); assay: Inhibition of telomerase at 1 uM by TRAP assay
HCT-116 = assay: Resistance index, ratio IC50 for HCT116 cells to IC50 for p53 deleted human HCT116 cells; assay type: functional
[2] = molecular target: T1, DNA topoisomerase 1 (Homo sapiens) (UniProt P11387); assay: Inhibition of topoisomerase 1-mediate pHot DNA relaxation measured by electrophoretic mobility
T1 sequence (whole entry): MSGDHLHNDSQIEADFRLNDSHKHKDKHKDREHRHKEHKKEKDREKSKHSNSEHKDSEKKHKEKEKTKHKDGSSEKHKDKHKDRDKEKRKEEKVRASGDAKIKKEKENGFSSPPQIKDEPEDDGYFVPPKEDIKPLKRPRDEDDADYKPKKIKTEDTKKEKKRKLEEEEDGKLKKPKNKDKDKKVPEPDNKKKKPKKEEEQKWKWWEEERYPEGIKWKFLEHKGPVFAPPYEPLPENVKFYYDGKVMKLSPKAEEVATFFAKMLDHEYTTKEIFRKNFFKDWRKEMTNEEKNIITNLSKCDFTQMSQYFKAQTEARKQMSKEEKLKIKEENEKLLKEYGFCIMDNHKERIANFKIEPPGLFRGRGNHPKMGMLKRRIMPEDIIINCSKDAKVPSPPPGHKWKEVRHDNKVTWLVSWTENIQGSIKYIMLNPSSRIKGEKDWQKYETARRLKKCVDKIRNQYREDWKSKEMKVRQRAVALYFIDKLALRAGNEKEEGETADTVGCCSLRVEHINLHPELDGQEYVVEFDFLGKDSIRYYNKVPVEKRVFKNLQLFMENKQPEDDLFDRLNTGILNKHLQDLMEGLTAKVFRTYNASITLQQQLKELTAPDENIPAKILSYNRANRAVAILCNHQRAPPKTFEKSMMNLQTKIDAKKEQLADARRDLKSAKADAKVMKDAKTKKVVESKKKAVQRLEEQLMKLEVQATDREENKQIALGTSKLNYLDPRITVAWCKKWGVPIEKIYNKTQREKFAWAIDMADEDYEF

Chain of Telomerase reverse transcriptase (Homo sapiens) (O14746 whole entry): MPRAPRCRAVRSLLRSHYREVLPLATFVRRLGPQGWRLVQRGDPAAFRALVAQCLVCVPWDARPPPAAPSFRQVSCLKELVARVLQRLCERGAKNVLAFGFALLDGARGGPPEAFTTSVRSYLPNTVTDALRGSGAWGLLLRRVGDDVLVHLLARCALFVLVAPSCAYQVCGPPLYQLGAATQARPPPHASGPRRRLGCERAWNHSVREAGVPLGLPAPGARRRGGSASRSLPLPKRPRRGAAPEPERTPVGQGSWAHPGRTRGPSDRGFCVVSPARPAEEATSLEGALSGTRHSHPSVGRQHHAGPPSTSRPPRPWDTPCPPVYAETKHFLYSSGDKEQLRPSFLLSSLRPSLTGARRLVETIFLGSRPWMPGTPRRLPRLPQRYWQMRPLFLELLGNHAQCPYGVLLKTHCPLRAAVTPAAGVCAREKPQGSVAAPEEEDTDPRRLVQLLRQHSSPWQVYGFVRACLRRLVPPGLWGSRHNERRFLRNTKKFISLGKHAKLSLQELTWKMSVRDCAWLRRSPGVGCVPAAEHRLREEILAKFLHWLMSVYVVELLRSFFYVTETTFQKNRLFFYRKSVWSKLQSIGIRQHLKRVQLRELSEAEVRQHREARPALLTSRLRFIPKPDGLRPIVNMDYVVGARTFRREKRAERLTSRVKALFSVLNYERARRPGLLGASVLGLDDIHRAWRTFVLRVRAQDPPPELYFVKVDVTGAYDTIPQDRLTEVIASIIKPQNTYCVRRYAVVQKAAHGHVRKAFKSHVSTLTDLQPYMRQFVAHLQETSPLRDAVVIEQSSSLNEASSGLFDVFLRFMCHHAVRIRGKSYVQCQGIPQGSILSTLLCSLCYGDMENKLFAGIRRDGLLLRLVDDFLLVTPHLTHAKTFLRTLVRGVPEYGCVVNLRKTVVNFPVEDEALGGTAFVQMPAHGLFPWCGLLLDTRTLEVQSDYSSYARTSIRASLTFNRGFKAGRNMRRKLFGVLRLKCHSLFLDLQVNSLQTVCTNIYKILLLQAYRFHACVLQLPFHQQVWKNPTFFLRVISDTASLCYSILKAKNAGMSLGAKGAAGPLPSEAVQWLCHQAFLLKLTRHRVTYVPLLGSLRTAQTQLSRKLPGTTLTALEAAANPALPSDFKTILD

Compound | Ratio IC50 (K562) | Activity [1] | Ratio IC50 (HCT-116) | Activity [2]
CNCCNc1c2c(c(NCCNC)c3sc(C(=O)NC)cc13)C(=O)c1ccccc1C2=O | >11 |  |  | 
N=C(N)NCCNc1c2c(c(NCCNC(=N)N)c3sccc13)C(=O)c1ccccc1C2=O | 3.4 | Active | >25 | 
COc1cccc2c1C(=O)c1c(O)c3c(c(O)c1C2=O)C[C@@](O)(C(=O)CO)C[C@@H]3O[C@H]1C[C@H](N)[C@H](O)[C@H](C)O1 [DOXORUBICIN] | 51 |  |  | 
CN(C)CCNc1c2c(c(NCCN(C)C)c3sc(C(=O)NN)cc13)C(=O)c1ccccc1C2=O | >90 |  | >25 | 
Cc1csc2c(NCCN)c3c(c(NCCN)c12)C(=O)c1ccccc1C3=O | 5 |  | >83 | 
CNC(=O)c1cc2c(NCCN(C)C)c3c(c(NCCN(C)C)c2s1)C(=O)c1ccccc1C3=O | 1.1 |  | 4.2 | 
CNCCNc1c2c(c(NCCNC)c3[nH]ccc13)C(=O)c1ccccc1C2=O | 3.1 |  | 1 | 
Cc1csc2c(NCCN(C)C)c3c(c(NCCN(C)C)c12)C(=O)c1ccccc1C3=O | 1.8 |  | 8.4 | 
O=C1c2ccccc2C(=O)c2c1c(NCCNCCO)c1ccsc1c2NCCNCCO | >12 |  |  | 
CNCCNc1c2c(c(NCCNC)c3c(C)csc13)C(=O)c1ccccc1C2=O | 2 |  | 2.7 | 
CNCCNc1c2c(c(NCCNC)c3sccc13)C(=O)c1ccccc1C2=O | 1.4 | Active | 0.6 | Active
CN(CCNc1c2c(c(NCCN(C)C(=N)N)c3sccc13)C(=O)c1ccccc1C2=O)C(=N)N |  | Active | >24 | 
CN(C)CCNc1c2c(c(NCCN(C)C)c3sc(C(=O)NCCO)cc13)C(=O)c1ccccc1C2=O | >6 |  |  | 
CN(C)CCNc1c2c(c(NCCN(C)C)c3sccc13)C(=O)c1ccccc1C2=O | 2.3 |  | 0.6 | 
CC(=O)OCCNCCNc1c2c(c(NCCNCCOC(C)=O)c3sccc13)C(=O)c1ccccc1C2=O | >18 |  |  | 
